Data as given in patent publication US12459951B2, “Compounds that interact with RAS superfamily proteins for treatment of cancers, inflammatory diseases, rasopathies, and fibrotic disease” (SHY Therapeutics, LLC, priority 2022, dated 2025).
Counter-ions that a name gives are not always drawn. Like-named read-outs stand apart in the source and are kept apart here.

Tests used:
Akt phosphorylation = assay: Akt Phosphorylation Assay (western blot), Panc-1; assay type: cell-based, human; conditions: at 10 μM, * = activation
Experimental: Protocol for Western Akt Cell-Based Phosphorylation Assay
This assay is referred to as the “Akt Phosphorylation Assay” throughout this application.
Human tumor-derived pancreatic cancer cell line Panc-1 (expressing KRas G12D mutant) was purchased from American Type Culture Collection and grown in complete DMEM-High Glucose supplemented with penicillin (100 U/mL), streptomycin (100 μg/mL), and 10% heat-inactivated FBS at 37° C. in a humidified incubator with 5% CO2.
Method 1: Cells were plated at 350000 cells/well density in a 12-well plate, allowed 3 hours to adhere to the plate, then starved in the appropriate medium in the presence of 0.5% FBS overnight. The small molecules to be tested were added to the cells in the final concentration of 10 μM in the presence of 0.3% DMSO for 6 hours incubation at 37° C. Next, cells were stimulated with 1.5 ng/ml EGF for 15 minutes then cells were lysed with lysis buffer containing 1% Triton X-100, EDTA, and Halt™ Protease & Phosphatase Inhibitor Cocktail (Thermo Scientific). Protein concentration was assessed by BCA protein assay (Thermo Scientific). Phosphorylation level of Akt was determined by western blot.
Method 2: Cells were plated at 350000 cells/well density in a 12-well plate in 10% FBS. The next day small molecules to be tested were added to the cells in the final concentration of 10 μM in the presence of 0.3% DMSO for 6 hours incubation at 37° C. For IC50 value determination, serial dilutions of compounds were added to cells under the same conditions. Next, cells were lysed with lysis buffer containing 1% Triton X-100, EDTA, and Halt™ Protease & Phosphatase Inhibitor Cocktail (Thermo Scientific). Protein concentration was assessed by BCA protein assay (Thermo Scientific). Phosphorylation level of Akt was determined by western blot.
Western blot protocol: Equal amounts of protein (15-50 μg) were separated by SDS-PAGE and transferred to nitrocellulose membranes (Invitrogen by Thermo Fisher Scientific). The membrane was stained with Ponceau S Stain (Boston BioProducts) to verify uniform protein loading. Membranes were blocked with 10% milk and phosphorylation levels of Akt were assessed by incubating overnight at 4° C. with anti-phospho-Akt (Ser473) antibody (Cell Signaling) followed by HRP-conjugated secondary antibody (Jackson Immunoresearch, West Grove, PA). Bands were incubated in Amersham ECL Prime Western Blotting Detection Reagent (GE Healthcare) and visualized using the ChemiDoc MP imaging system (Bio-Rad).

[1] = system: MiaPaca-2 (expressing KRAS G12C mutant); assay: Proliferation Assay (Cell Viability Assay); assay type: cell-based; conditions: Homo sapiens, MIA PaCa-2
Experimental: Protocol for Proliferation Assay
This assay is referred to as the “Proliferation Assay” or “Cell Viability Assay” throughout this application.
Cell lines: Human tumor-derived cell lines were purchased from American Type Culture Collection. Human tumor-derived pancreatic cancer cell line MiaPaca-2 (expressing KRAS G12C mutant) and Panc-1 (expressing KRas G12D mutant), and Human non-small cell lung cancer (NSCLC) cell line A549 (expressing KRas G12S mutant) were grown in complete DMEM-High Glucose medium. Human colon cancer cell line SW-620 (expressing KRas G12V mutant) was grown in RPMI 1640 medium. All cell lines were supplemented with penicillin (100 U/mL), streptomycin (100 μg/mL), and 10% heat-inactivated FBS at 37° C. in a humidified incubator with 5% CO2.
(§1) Method: Cells were plated at 2000 to 5000 cells/well density in 96-wells plate and cultured overnight. Small molecules to be tested were added to the cells in the final concentration of 10 μM in the presence of 0.3% DMSO and 10% FBS and incubated for 2-4 days at 37° C. in a humidified incubator with 5% CO2. For IC50 value determination, serial dilutions of compounds were added to cells under the same conditions.
Assay: At the end of the incubation period, cell viability was determined using the CellTiter 96® Aqueous One Solution Cell Proliferation Assay according to manufacturer specifications (Promega, Madison, WI). The percentage of small molecules inhibition of cellular proliferation was calculated from raw data.
Cell lines: these Human tumor-derived cell lines were purchased from American Type Culture Collection. Human tumor-derived pancreatic cancer cell line MiaPaca-2 (expressing KRAS G12C mutant) and Panc-1 (expressing KRas G12D mutant), and Human non-small cell lung cancer (NSCLC) cell line A549 (expressing KRas G12S mutant), and Human melanoma cell line A375 (wild type Kras) were grown in complete DMEM-High Glucose medium. Human tumor-derived pancreatic cancer cell lines SU86.86 (expressing KRas G12D mutant), BxPC3 (expressing wild type K-Ras), and Human non-small cell lung cancer (NSCLC) cell lines NCI-H441 (expressing KRas G12S mutant), NCI-H1975 (expressing wild type KRas), NCI-H358 (expressing KRas G12C mutant), NCI-H1299 (expressing NRas Q61H mutant), and Human colon cancer cell line SW-620 (expressing KRas G12V mutant), Human triple negative breast cancer cell line HCC-1806 (expressing wild type KRas), and Human tumor-derived multiple myeloma cell line MM.1R (expressing wild type KRAS), were grown in RPMI 1640 medium. Human tumor-derived breast cancer cell line BT-549 (expressing wild type KRAS) was grown in RPMI 1640 medium in the presence of 11.8U insulin. Human tumor-derived pancreatic cancer cell line HPAF-II (expressing KRas G12D mutant), Human triple negative breast cancer cell line BT-20 (expressing wild type KRas), and Human colon cancer cell line LS123 (expressing KRas G12S mutant), were grown in EMEM medium. Human tumor-derived pancreatic cancer cell line CF-PAC1 (expressing KRas G12V mutant) was frown in IMDM medium, and Human colon cancer cell line HT29 (expressing wild type KRas) was grown in McCoy's 5A medium. The colon cancer cell line GP2d (expressing KRas G12D mutant) was purchased from MilliporeSigma and grown in DMEM-High Glucose medium. All cell lines were supplemented with penicillin (100 U/mL), streptomycin (100 μg/mL), and 10% heat-inactivated FBS at 37° C. in a humidified incubator with 5% CO2.
as §1, with “that were” for “to be”, “FBS,” for “FBS”

[2] = read-out: Proliferation in MiaPaca-2: IC50

Cc1c(-c2ccn(C3CC3)n2)cn2nc(-c3nccn3C)nc(Nc3cc(OCCO)ccn3)c12 [Compound 146, 2-((2-((6-(1-Cyclopropyl-1H-pyrazol-3-yl)-5-methyl-2-(1-methyl-1H-imidazol-2-yl)pyrrolo[2,1-f][1,2,4]triazin-4-yl)amino)pyridin-4-yl)oxy)ethan-1-ol]
% inh of Akt phosphorylation in Panc-1 (Akt phosphorylation): D* (85-100% activation)
IC50 [1, 2]: 150 to 500 nM

COc1cc(Nc2nc(-c3nccn3C)nn3cc(-c4ccn(C(F)F)n4)c(C)c23)ncn1 [Compound 98, 6-(1-(Difluoromethyl)-1H-pyrazol-3-yl)-N-(6-methoxypyrimidin-4-yl)-5-methyl-2-(1-methyl-1H-imidazol-2-yl)pyrrolo[2,1-f][1,2,4]triazin-4-amine]
% inh of Akt phosphorylation in Panc-1 (Akt phosphorylation): D* (85-100% activation)
IC50 [1, 2]: < 150 nM

CO[C@H]1C[C@H](Nc2nc(-c3nccn3C)nn3cc(-c4ccn(C)n4)c(C)c23)C1 [Compound 103, N-((1r,3r)-3-Methoxycyclobutyl)-5-methyl-2-(1-methyl-1H-imidazol-2-yl)-6-(1-methyl-1H-pyrazol-3-yl)pyrrolo[2,1-f][1,2,4]triazin-4-amine hydrochloride salt]
% inh of Akt phosphorylation in Panc-1 (Akt phosphorylation): C* (46-84% activation)
IC50 [1, 2]: > 1000 nM

Cc1c(-c2ccn(C(C)C)n2)cn2nc(-c3nccn3C)nc(Nc3nccc(OCCN(C)C)n3)c12 [Compound 96, N-(4-(2-(Dimethylamino)ethoxy)pyrimidin-2-yl)-6-(1-isopropyl-1H-pyrazol-3-yl)-5-methyl-2-(1-methyl-1H-imidazol-2-yl)pyrrolo[2,1-f][1,2,4]triazin-4-amine]
% inh of Akt phosphorylation in Panc-1 (Akt phosphorylation): D* (85-100% activation)
IC50 [1, 2]: 150 to 500 nM

COc1cc(Nc2nc(-c3nccn3C)nn3cc(-c4ccccn4)c(C)c23)ncn1 [Compound 94, N-(6-Methoxypyrimidin-4-yl)-5-methyl-2-(1-methyl-1H-imidazol-2-yl)-6-(pyridin-2-yl)pyrrolo[2,1-f][1,2,4]triazin-4-amine]
% inh of Akt phosphorylation in Panc-1 (Akt phosphorylation): D* (85-100% activation)
IC50 [1, 2]: < 150 nM

Cc1c(-c2ccn(C(C)C)n2)cn2nc(-c3nccn3C)nc(Nc3nccc(OCCO)n3)c12 [Compound 121, 2-((2-((6-(1-Isopropyl-1H-pyrazol-3-yl)-5-methyl-2-(1-methyl-1H-imidazol-2-yl)pyrrolo[2,1-f][1,2,4]triazin-4-yl)amino)pyrimidin-4-yl)oxy)ethan-1-ol]
% inh of Akt phosphorylation in Panc-1 (Akt phosphorylation): B* (26-49% activation)
IC50 [1, 2]: 510 to 1000 nM

Cc1c(-c2ccn(C)n2)cn2nc(-c3nccn3C)nc(Nc3n[nH]c(C4CC4)n3)c12 [Compound 113, N-(5-Cyclopropyl-1H-1,2,4-triazol-3-yl)-5-methyl-2-(1-methyl-1H-imidazol-2-yl)-6-(1-methyl-1H-pyrazol-3-yl)pyrrolo[2,1-f][1,2,4]triazin-4-amine]
% inh of Akt phosphorylation in Panc-1 (Akt phosphorylation): D* (85-100% activation)
IC50 [1, 2]: < 150 nM

Cc1c(-c2ccn(C(C)C)n2)cn2nc(-c3ccccn3)nc(O)c12 [Compound 8, 6-(1-Isopropyl-1H-pyrazol-3-yl)-5-methyl-2-(pyridin-2-yl)pyrrolo[2,1-f][1,2,4]triazin-4-ol]
% inh of Akt phosphorylation in Panc-1 (Akt phosphorylation): 0 (0% inhibition)
IC50 [1, 2]: > 1000 nM

Cc1c(-c2ccn(C3CC3)n2)cn2nc(-c3nccn3C)nc(Nc3cc(OCCN(C)C)ccn3)c12 [Compound 147, 6-(1-Cyclopropyl-1H-pyrazol-3-yl)-N-(4-(2-(dimethylamino)ethoxy)pyridin-2-yl)-5-methyl-2-(1-methyl-1H-imidazol-2-yl)pyrrolo[2,1-f][1,2,4]triazin-4-amine]
% inh of Akt phosphorylation in Panc-1 (Akt phosphorylation): A* (1-25% activation)
IC50 [1, 2]: > 1000 nM

Cc1c(-c2ccn(C)n2)cn2nc(-c3nccn3C)nc(Nc3cc4n(n3)CCC4)c12 [Compound 100, N-(5,6-Dihydro-4H-pyrrolo[1,2-b]pyrazol-2-yl)-5-methyl-2-(1-methyl-1H-imidazol-2-yl)-6-(1-methyl-1H-pyrazol-3-yl)pyrrolo[2,1-f][1,2,4]triazin-4-amine]
% inh of Akt phosphorylation in Panc-1 (Akt phosphorylation): D* (85-100% activation)
IC50 ([1]; Proliferation assay, MiaPaca-2, read-out: MiaPaca-2 IC50 (nM) Pancreatic): 1 to 10 nM
IC50 [1, 2]: < 150 nM
